Results published in ChEMBL document CHEMBL5625254, “Design, synthesis and evaluation of ursodeoxycholic acid-cinnamic acid hybrids as potential anti-inflammatory agents by inhibiting Akt/NF-κB and MAPK signaling pathways” (Eur J Med Chem, 2023).

Columns and labels:
RAW264.7 [1] = test: Cytotoxicity against mouse RAW264.7 cells assessed as cell viability at 20 uM incubated for 24 hrs by CCK8 assay; format: toxicity, cell-based; details: raw264.7, 24 h
RAW264.7 [2] = test: Anti-inflammatory activity in mouse RAW264.7 cells assessed as inhibition of LPS-induced NO production incubated for 24 hrs; format: functional, cell-based; details: for IC50: RAW264.7, 24 h; for inhibition: dose 1.25-20 µM
RAW264.7 [3] = test: Anti-inflammatory activity in mouse RAW264.7 cells assessed as inhibition of LPS-induced NO production at 10 uM incubated for 24 hrs relative to control; format: functional

SMILES | Activity (RAW264.7 [1]) | IC50 (RAW264.7 [2]) [µM] | inhibition (RAW264.7 [2]) | inhibition at 10 µM (RAW264.7 [3]) [%]
C[C@H](CCC(=O)N1CCN(C(=O)/C=C/c2cccc(Cl)c2)CC1)[C@H]1CC[C@H]2[C@@H]3[C@@H](O)C[C@@H]4C[C@H](O)CC[C@]4(C)[C@H]3CC[C@]12C | Non-Toxic |  |  | 
CC(=O)O[C@@H]1CC[C@@]2(C)[C@@H](C1)C[C@H](OC(C)=O)[C@@H]1[C@@H]2CC[C@]2(C)[C@@H]([C@H](C)CCC(=O)N3CCN(C(=O)/C=C/c4ccc(C)cc4)CC3)CC[C@@H]12 | Non-Toxic |  |  | 
COc1cc(/C=C\C(=O)N2CCN(C(=O)CC[C@@H](C)[C@H]3CC[C@H]4[C@@H]5[C@@H](O)C[C@@H]6C[C@H](O)CC[C@]6(C)[C@H]5CC[C@]34C)CC2)ccc1O | Non-Toxic |  |  | 
C/C(=C\c1ccccc1)C(=O)N1CCN(C(=O)CC[C@@H](C)[C@H]2CC[C@H]3[C@@H]4[C@@H](O)C[C@@H]5C[C@H](O)CC[C@]5(C)[C@H]4CC[C@]23C)CC1 | Non-Toxic |  |  | 
COc1cc(/C=C/C(=O)N2CCN(C(=O)CC[C@@H](C)[C@H]3CC[C@H]4[C@@H]5[C@@H](O)C[C@@H]6C[C@H](O)CC[C@]6(C)[C@H]5CC[C@]34C)CC2)cc(OC)c1O | Toxic |  |  | 
Cc1ccc(/C=C/C(=O)N2CCN(C(=O)CC[C@@H](C)[C@H]3CC[C@H]4[C@@H]5C(=O)C[C@@H]6CC(=O)CC[C@]6(C)[C@H]5CC[C@]34C)CC2)cc1 | Toxic |  |  | 
COc1ccc(/C=C/C(=O)N2CCN(C(=O)CC[C@@H](C)[C@H]3CC[C@H]4[C@@H]5[C@@H](O)C[C@@H]6C[C@H](O)CC[C@]6(C)[C@H]5CC[C@]34C)CC2)cc1 | Non-Toxic |  |  | 
C[C@H](CCC(=O)N1CCN(C(=O)/C=C/c2ccccc2)CC1)[C@H]1CC[C@H]2[C@@H]3[C@@H](O)C[C@@H]4C[C@H](O)CC[C@]4(C)[C@H]3CC[C@]12C | Non-Toxic | 9.5 | Dose-Dependent Effect | > 50
C[C@H](CCC(=O)N1CCN(C(=O)/C=C/c2ccc(F)c(F)c2)CC1)[C@H]1CC[C@H]2[C@@H]3[C@@H](O)C[C@@H]4C[C@H](O)CC[C@]4(C)[C@H]3CC[C@]12C | Non-Toxic |  |  | 
C[C@H](CCC(=O)N1CCN(C(=O)/C=C/c2ccc(OC(F)(F)F)cc2)CC1)[C@H]1CC[C@H]2[C@@H]3[C@@H](O)C[C@@H]4C[C@H](O)CC[C@]4(C)[C@H]3CC[C@]12C | Toxic |  |  | 
C[C@H](CCC(=O)N1CCN(C(=O)/C=C/c2cc(F)c(F)c(F)c2)CC1)[C@H]1CC[C@H]2[C@@H]3[C@@H](O)C[C@@H]4C[C@H](O)CC[C@]4(C)[C@H]3CC[C@]12C | Toxic |  |  | 
C[C@H](CCC(=O)N1CCN(C(=O)/C=C/c2ccc(Cl)cc2)CC1)[C@H]1CC[C@H]2[C@@H]3[C@@H](O)C[C@@H]4C[C@H](O)CC[C@]4(C)[C@H]3CC[C@]12C | Non-Toxic | 8.23 | Dose-Dependent Effect | > 50
C[C@H](CCC(=O)N1CCN(C(=O)/C=C/c2ccc(Cl)c(Cl)c2)CC1)[C@H]1CC[C@H]2[C@@H]3[C@@H](O)C[C@@H]4C[C@H](O)CC[C@]4(C)[C@H]3CC[C@]12C | Non-Toxic |  |  | 
C[C@H](CCC(=O)N1CCN(C(=O)/C=C/c2ccc(C(F)(F)F)cc2)CC1)[C@H]1CC[C@H]2[C@@H]3[C@@H](O)C[C@@H]4C[C@H](O)CC[C@]4(C)[C@H]3CC[C@]12C | Non-Toxic |  |  | 
C[C@H](CCC(=O)N1CCN(C(=O)/C=C/c2ccccc2Cl)CC1)[C@H]1CC[C@H]2[C@@H]3[C@@H](O)C[C@@H]4C[C@H](O)CC[C@]4(C)[C@H]3CC[C@]12C | Non-Toxic |  |  | 
C[C@H](CCC(=O)N1CCN(C(=O)/C=C/c2ccc(O)cc2)CC1)[C@H]1CC[C@H]2[C@@H]3[C@@H](O)C[C@@H]4C[C@H](O)CC[C@]4(C)[C@H]3CC[C@]12C | Non-Toxic |  |  | 
C[C@H](CCC(=O)N1CCN(C(=O)CCc2ccccc2)CC1)[C@H]1CC[C@H]2[C@@H]3[C@@H](O)C[C@@H]4C[C@H](O)CC[C@]4(C)[C@H]3CC[C@]12C | Non-Toxic |  |  | 
COc1cc(/C=C\C(=O)N2CCN(C(=O)CC[C@@H](C)[C@H]3CC[C@H]4[C@@H]5[C@@H](O)C[C@@H]6C[C@H](O)CC[C@]6(C)[C@H]5CC[C@]34C)CC2)cc(OC)c1OC | Non-Toxic |  |  | 
C[C@H](CCC(=O)N1CCN(C(=O)/C=C\c2ccc3c(c2)OCO3)CC1)[C@H]1CC[C@H]2[C@@H]3[C@@H](O)C[C@@H]4C[C@H](O)CC[C@]4(C)[C@H]3CC[C@]12C | Non-Toxic |  |  | 
COc1cc(/C=C/C(=O)N2CCN(C(=O)CC[C@@H](C)[C@H]3CC[C@H]4[C@@H]5[C@@H](O)C[C@@H]6C[C@H](O)CC[C@]6(C)[C@H]5CC[C@]34C)CC2)ccc1O | Non-Toxic |  |  | 
C[C@H](CCC(=O)N1CCN(C(=O)/C=C/c2cc(F)cc(F)c2)CC1)[C@H]1CC[C@H]2[C@@H]3[C@@H](O)C[C@@H]4C[C@H](O)CC[C@]4(C)[C@H]3CC[C@]12C | Non-Toxic |  |  | 
COc1cc(/C=C/C(=O)N2CCN(C(=O)CC[C@@H](C)[C@H]3CC[C@H]4[C@@H]5[C@@H](O)C[C@@H]6C[C@H](O)CC[C@]6(C)[C@H]5CC[C@]34C)CC2)cc(OC)c1OC | Non-Toxic | 9.49 | Dose-Dependent Effect | > 50
C[C@H](CCC(=O)N1CCN(C(=O)/C=C/c2ccc(F)cc2F)CC1)[C@H]1CC[C@H]2[C@@H]3[C@@H](O)C[C@@H]4C[C@H](O)CC[C@]4(C)[C@H]3CC[C@]12C | Toxic |  |  | 
C[C@H](CCC(=O)N1CCN(C(=O)/C=C/c2cccc(OC(F)(F)F)c2)CC1)[C@H]1CC[C@H]2[C@@H]3[C@@H](O)C[C@@H]4C[C@H](O)CC[C@]4(C)[C@H]3CC[C@]12C | Non-Toxic | 8.58 | Dose-Dependent Effect | > 50
C[C@H](CCC(=O)N1CCN(C(=O)/C=C/c2ccccc2O)CC1)[C@H]1CC[C@H]2[C@@H]3[C@@H](O)C[C@@H]4C[C@H](O)CC[C@]4(C)[C@H]3CC[C@]12C | Non-Toxic |  |  | 
C[C@H](CCC(=O)N1CCN(C(=O)/C=C/c2cccc3ccccc23)CC1)[C@H]1CC[C@H]2[C@@H]3[C@@H](O)C[C@@H]4C[C@H](O)CC[C@]4(C)[C@H]3CC[C@]12C | Non-Toxic |  |  | 
C[C@H](CCC(=O)N1CCN(C(=O)/C=C/c2cccc(O)c2)CC1)[C@H]1CC[C@H]2[C@@H]3[C@@H](O)C[C@@H]4C[C@H](O)CC[C@]4(C)[C@H]3CC[C@]12C | Non-Toxic |  |  | 
C[C@H](CCC(=O)N1CCN(C(=O)/C=C/c2ccc3c(c2)OCO3)CC1)[C@H]1CC[C@H]2[C@@H]3[C@@H](O)C[C@@H]4C[C@H](O)CC[C@]4(C)[C@H]3CC[C@]12C | Non-Toxic |  |  | 
